Data on one compound can be found in patent US20020107282A1, “Cosmetic composition containing an aminophenol derivative and an isoflavonoid” (L'OREAL, priority 2000, published 2002).

In this test the test system is fungal tyrosinase. Put plainly: in vitro inhibition of the activity of fungal tyrosinase (OD at 475 nm). The class given is biochemical. As to conditions: active agent alone in ethanol, C1 = 1.25 × 10^−4 M. As to the method: This test consists in measuring the absorbence (optical density OD) at 475 nm as a function of time for each of the depigmenting active agents tested. These agents are dissolved (at various concentrations) in a suitable solvent in the presence of a phosphate buffer, 1 ml of L-tyrosine at 2.0×10^−3 M in a phosphate buffer, 0.1 ml of L-Dopa at 1.0×10^−4 M in a phosphate buffer and 50 μl of a fungal tyrosinase solution at 1 g/l in a phosphate buffer, compared with a control consisting of the solvent used at the same concentration in the phosphate buffer. A percentage of inhibition is then determined by the following equation: [formula] […] These two active agents in the concentrations C1 and C2 found above are then mixed together. The theoretical percentage of inhibition of the mixture (or theoretical IC), corresponding to the sum of the percentages of inhibition observed for the individual compounds, is then calculated, and the percentage of inhibition obtained (or measured IC) is measured under the same experimental conditions as for the compounds tested separately.

Turning to `CCOC(=O)Nc1ccc(O)cc1` [N-ethoxy-carbonyl-4-aminophenol, N-ethyloxycarbonyl-4-aminophenol], where the note is “inhibition actually obtained”, the “IC obtained (%)” value was determined as 23.5%. The “Theoretical IC (%)” value (inhibition value that should be observed (close to 25%)) was determined as 24.8%.
